{"source": "patent US4071411A", "about": "“Antitumor antibiotics aclacinomycins A and B [RD-9187A]” (priority 1974, dated 1978)", "key": {"solubility": {"assay": "solubility", "conditions": "for solubility in low polar solvents: ether, hexane, cyclohexane, petroleum ether as listed; for solubility in organic solvents: methanol, ethanol, chloroform, ethyl acetate, acetone etc."}, "leukemia L1210": {"test_system": "leukemia L1210", "assay": "leukemia L1210 in mice (summary in words)", "format": "in vivo"}, "E. coli K12": {"test_system": "E. coli K12", "assay": "antimicrobial spectrum, broth dilution method", "format": "cell-based", "conditions": "Escherichia coli", "protocol": "1. The antimicrobial spectrum of aclacinomycins A and B was determined by the broth dilution method as follows: […]"}, "[1]": {"assay": "cardiotoxicity (general statement)", "conditions": "in vivo"}, "[2]": {"test_system": "Protein synthesis (L1210 cells)", "assay": "cells", "format": "cell-based, mice", "conditions": "Mus musculus, L1210, 1 h; 14C-precursor incorporation, 37° C., 60 min.; read-out: ID50, Protein synthesis"}, "[3]": {"assay": "basicity and lipophilicity"}, "hepatomas": {"test_system": "hepatomas", "assay": "hepatomas in rats (summary in words)", "format": "in vivo"}, "L1210 leukemia cells": {"test_system": "L1210 leukemia cells", "assay": "survival of mice with L1210 leukemia, treatment days 1, 5 and 9", "format": "in vivo", "conditions": "for 30 day survivors / Mean survival time: days 1, 5 and 9; for 30 day survivors: control 0/10; for Mean survival time: control 10.4", "from_the_text": "Mice are inoculated intraperitoneally with a suspension of L1210 leukemia cells and treated with solutions of different concentrations of aclacinomycin A and 1, 5 and 9 days following the tumor implantation."}, "ascitic hepatoma AH44": {"test_system": "ascitic hepatoma AH44", "assay": "survival of Donryu rats grafted with ascitic hepatoma AH44", "format": "in vivo", "conditions": "2 mg./kg./day i.p., 10 consecutive days; control average survival 14.5 days"}, "[4]": {"test_system": "lymphoma 6C3HED/OG, ascitic type", "assay": "ascitic lymphoma 6C3HED/OG in CH3/He mice", "format": "in vivo", "conditions": "for T/C (Survival ratio: Tested/control) / 62 day survivors / MST (Mean survival time): 10 days; for 62 day survivors: control 0/3; for MST (Mean survival time): control 20.5"}, "[5]": {"test_system": "lymphoma 6C3HED/OG, solid type", "assay": "growth of solid lymphoma 6C3HED/OG in CH3/He mice", "format": "in vivo", "conditions": "for Inhibition / 21 day survivors / Tumor weight/Body weight / Tumor weight: 10 days; for 21 day survivors: control 7/9; for Tumor weight/Body weight: control 29.6; for Tumor weight: control 7045"}, "Sarcoma 180": {"test_system": "Sarcoma 180", "assay": "growth of Sarcoma 180 in mice", "format": "in vivo"}, "Ehrlich carcinoma": {"test_system": "Ehrlich carcinoma", "assay": "growth of Ehrlich carcinoma in mice", "format": "in vivo", "conditions": "ascites and solid forms"}, "[6]": {"conditions": "in vivo"}}, "note": "Read-outs that look alike come from different tables or passages of the source.", "data": [{"smiles": "CCC1(O)CC(OC2CC(N(C)C)C(OC3CC4OC5CC(=O)C(C)OC5OC4C(C)O3)C(C)O2)c2c(cc3c(c2O)C(=O)c2c(O)cccc2C3=O)C1C(=O)OC", "note": "(stereo not drawn) [Aclacinomycin B]", "values": [{"measurement": "solubility in acidic water", "setting": "solubility; acidic water", "result": "soluble"}, {"measurement": "solubility in low polar solvents", "setting": "solubility", "result": "insoluble"}, {"measurement": "solubility in organic solvents", "setting": "solubility", "result": "soluble"}, {"measurement": "solubility in water", "setting": "solubility", "result": "slightly soluble"}, {"measurement": "inhibition of growth of leukemia L1210", "setting": "leukemia L1210", "result": "effective in inhibiting the growth"}, {"measurement": "life prolongation, mice inoculated with leukemia L1210", "setting": "leukemia L1210", "result": "markedly prolong the lives"}, {"measurement": "MIC", "setting": "E. coli K12; K12, read-out: Minimum Inhibitory Concentration", "result": "> 100", "unit": "µg/mL"}, {"measurement": "cardiotoxicity", "setting": "[1]", "result": "low cardiotoxicity"}, {"measurement": "IC50", "setting": "[2]", "result": 12, "unit": "µg/mL"}, {"measurement": "basicity", "setting": "[3]", "result": "weakly basic"}, {"measurement": "lipophilicity", "setting": "[3]", "result": "lipophilic"}]}, {"smiles": "CCC1(O)CC(OC2CC(N(C)C)C(OC3CC(O)C(OC4CCC(=O)C(C)O4)C(C)O3)C(C)O2)c2c(cc3c(c2O)C(=O)c2c(O)cccc2C3=O)C1C(=O)OC", "note": "(stereo not drawn) [Aclacinomycin A]", "values": [{"measurement": "inhibition of growth of hepatomas", "setting": "hepatomas", "result": "effective in inhibiting the growth"}, {"measurement": "30 day survivors", "setting": "L1210 leukemia cells; 1.5 mg/kg/day", "result": "0/5"}, {"measurement": "Mean survival time", "setting": "L1210 leukemia cells; 1.5 mg/kg/day", "result": 12.6, "unit": "days"}, {"measurement": "30 day survivors", "setting": "L1210 leukemia cells; 3 mg/kg/day", "result": "2/5"}, {"measurement": "Mean survival time", "setting": "L1210 leukemia cells; 3 mg/kg/day", "result": 23.3, "unit": "days"}, {"measurement": "30 day survivors", "setting": "L1210 leukemia cells; 6 mg/kg/day", "result": "2/5"}, {"measurement": "Mean survival time", "setting": "L1210 leukemia cells; 6 mg/kg/day", "result": 21.7, "unit": "days"}, {"measurement": "30 day survivors", "setting": "L1210 leukemia cells; 12 mg/kg/day", "result": "0/5"}, {"measurement": "Mean survival time", "setting": "L1210 leukemia cells; 12 mg/kg/day", "result": 16.1, "unit": "days"}, {"measurement": "mean survival time of the treated mice (in words)", "setting": "L1210 leukemia cells; 6 and 3 mg./kg./day", "result": "increased considerably"}, {"measurement": "survival 30 days after the experiment", "setting": "ascitic hepatoma AH44", "result": "all the treated rats were alive 30 days after the experiment"}, {"measurement": "T/C (Survival ratio: Tested/control)", "setting": "[4]; 0.5 mg./kg./day i.p.", "result": 73, "unit": "%"}, {"measurement": "62 day survivors", "setting": "[4]; 0.5 mg./kg./day i.p.", "result": "0/3"}, {"measurement": "MST (Mean survival time)", "setting": "[4]; 0.5 mg./kg./day i.p.", "result": 15.0, "unit": "days"}, {"measurement": "T/C (Survival ratio: Tested/control)", "setting": "[4]; 1 mg./kg./day i.p.", "result": 183, "unit": "%"}, {"measurement": "62 day survivors", "setting": "[4]; 1 mg./kg./day i.p.", "result": "1/3"}, {"measurement": "MST (Mean survival time)", "setting": "[4]; 1 mg./kg./day i.p.", "result": 37.5, "unit": "days"}, {"measurement": "T/C (Survival ratio: Tested/control)", "setting": "[4]; 2 mg./kg./day i.p.", "result": 155, "unit": "%"}, {"measurement": "62 day survivors", "setting": "[4]; 2 mg./kg./day i.p.", "result": "0/3"}, {"measurement": "MST (Mean survival time)", "setting": "[4]; 2 mg./kg./day i.p.", "result": 31.8, "unit": "days"}, {"measurement": "T/C (Survival ratio: Tested/control)", "setting": "[4]; 4 mg./kg./day i.p.", "result": 98, "unit": "%"}, {"measurement": "62 day survivors", "setting": "[4]; 4 mg./kg./day i.p.", "result": "0/3"}, {"measurement": "MST (Mean survival time)", "setting": "[4]; 4 mg./kg./day i.p.", "result": 20.1, "unit": "days"}, {"measurement": "inhibition of growth of ascitic 6C3HED/OG tumor (in words)", "setting": "[4]; i.p. daily for 10 days", "result": "marked inhibition of the growth"}, {"measurement": "solubility in low polar solvents", "setting": "solubility", "result": "insoluble"}, {"measurement": "solubility in organic solvents", "setting": "solubility", "result": "soluble"}, {"measurement": "solubility in water", "setting": "solubility", "result": "slightly soluble"}, {"measurement": "Inhibition", "setting": "[5]; 0.5 mg./kg./day i.p.", "result": 47.6, "unit": "%"}, {"measurement": "21 day survivors", "setting": "[5]; 0.5 mg./kg./day i.p.", "result": "3/3"}, {"measurement": "Tumor weight/Body weight", "setting": "[5]; 0.5 mg./kg./day i.p.", "result": 12.4, "unit": "%"}, {"measurement": "Tumor weight", "setting": "[5]; 0.5 mg./kg./day i.p.", "result": 3695, "unit": "mg"}, {"measurement": "Inhibition", "setting": "[5]; 1 mg./kg./day i.p.", "result": 64.5, "unit": "%"}, {"measurement": "21 day survivors", "setting": "[5]; 1 mg./kg./day i.p.", "result": "3/3"}, {"measurement": "Tumor weight/Body weight", "setting": "[5]; 1 mg./kg./day i.p.", "result": 9.5, "unit": "%"}, {"measurement": "Tumor weight", "setting": "[5]; 1 mg./kg./day i.p.", "result": 2501, "unit": "mg"}, {"measurement": "Inhibition", "setting": "[5]; 2 mg./kg./day i.p.", "result": 34.2, "unit": "%"}, {"measurement": "21 day survivors", "setting": "[5]; 2 mg./kg./day i.p.", "result": "3/3"}, {"measurement": "Tumor weight/Body weight", "setting": "[5]; 2 mg./kg./day i.p.", "result": 15.1, "unit": "%"}, {"measurement": "Tumor weight", "setting": "[5]; 2 mg./kg./day i.p.", "result": 4633, "unit": "mg"}, {"measurement": "Inhibition", "setting": "[5]; 4 mg./kg./day i.p.", "result": 28.7, "unit": "%"}, {"measurement": "21 day survivors", "setting": "[5]; 4 mg./kg./day i.p.", "result": "0/3"}, {"measurement": "Tumor weight/Body weight", "setting": "[5]; 4 mg./kg./day i.p.", "result": 19.5, "unit": "%"}, {"measurement": "Tumor weight", "setting": "[5]; 4 mg./kg./day i.p.", "result": 5023, "unit": "mg"}, {"measurement": "inhibition of growth of solid 6C3HED/OG tumor (in words)", "setting": "[5]; i.p. daily for 10 days", "result": "marked inhibition of the growth"}, {"measurement": "inhibition of growth of leukemia L1210", "setting": "leukemia L1210", "result": "effective in inhibiting the growth"}, {"measurement": "life prolongation, mice inoculated with leukemia L1210", "setting": "leukemia L1210", "result": "markedly prolong the lives"}, {"measurement": "MIC", "setting": "E. coli K12; K12, broth dilution, read-out: Minimum Inhibitory Concentration", "result": "> 100", "unit": "µg/mL"}, {"measurement": "inhibition of growth of Sarcoma 180", "setting": "Sarcoma 180", "result": "effective in inhibiting the growth"}, {"measurement": "inhibition of growth of Ehrlich carcinoma", "setting": "Ehrlich carcinoma", "result": "effective in inhibiting the growth"}, {"measurement": "cardiotoxicity", "setting": "[6]", "result": "low cardiotoxicity"}, {"measurement": "IC50", "setting": "[2]", "result": 6.3, "unit": "µg/mL"}, {"measurement": "basicity", "setting": "[3]", "result": "weakly basic"}]}]}
